According to PubChem BioAssay (NCI):
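In this assay, cells in 96-well plates receive the compound at five concentrations for 48 hours. Endpoints are linearly interpolated between the surrounding concentrations. The concentration for 50% growth inhibition is given as GI50. TGI denotes the concentration required for complete inhibition of growth.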

Assays:
Assay in all cases: NCI anticancer screen, dose series, 48 h
A498 renal = system: A498 renal
DU-145 prostate = system: DU-145 prostate
HCT-15 colon = system: HCT-15 colon
LOX IMVI melanoma = system: LOX IMVI melanoma
NCI-H23 lung = system: NCI-H23 lung
NCI-H460 lung = system: NCI-H460 lung
OVCAR-5 ovarian = system: OVCAR-5 ovarian
SNB-75 CNS = system: SNB-75 CNS
UACC-62 melanoma = system: UACC-62 melanoma
UO-31 renal = system: UO-31 renal

Structure (SMILES)	TGI (A498 renal)	TGI (DU-145 prostate)	TGI (HCT-15 colon)	TGI (LOX IMVI melanoma)	TGI (NCI-H23 lung)	TGI (NCI-H460 lung)	TGI (OVCAR-5 ovarian)	TGI (SNB-75 CNS)	TGI (UACC-62 melanoma)	TGI (UO-31 renal)	GI50 (A498 renal)	GI50 (DU-145 prostate)	GI50 (HCT-15 colon)	GI50 (LOX IMVI melanoma)	GI50 (NCI-H23 lung)	GI50 (SNB-75 CNS)
CC(C)C(C(=O)O)N1C(=O)c2ccccc2C1=O (stereo not given)	> 100 µM	> 100 µM	> 100 µM	> 100 µM	> 100 µM	> 100 µM	> 100 µM	> 100 µM	> 100 µM							
COC(=O)c1ccc2c(c1)S/C(=C/c1ccc3ccc4cccc5ccc1c3c45)S2	> 100 µM	> 100 µM	> 100 µM	> 100 µM	52.7 µM	> 100 µM	> 100 µM	46 µM	61 µM	> 100 µM						
O[C@@]12Cc3c([nH]c4ccccc34)[C@@H]3Oc4cccc5c4[C@@]31CCN(CC1CC1)[C@@H]2C5	40.5 µM	45.2 µM	32.6 µM	32.9 µM	55.6 µM	60.9 µM	49.4 µM		32.3 µM	32.9 µM						
COC(=O)C1=C(OC(=O)/C(=C/c2ccc(Cl)cc2)c2ccc(Cl)cc2)C(C(=O)OC)[C@]2(O)[C@@H](C(=O)OC)[C@H]1C[C@@H](c1ccccc1)[C@@H]2C(=O)OC (stereo not given in full)		> 100 µM	> 100 µM	> 100 µM	> 100 µM	> 100 µM	> 100 µM	> 100 µM	> 100 µM							
CCCC1CCC(=C2C(=O)CCC2=O)O1 (stereo not given)		> 100 µM	> 100 µM	> 100 µM	> 100 µM	> 100 µM	> 100 µM	> 100 µM	> 100 µM	> 100 µM						
Cn1c(-c2ccccc2)cc(-c2cccs2)c1-c1cccs1	> 100 µM		> 100 µM	> 100 µM	> 100 µM	> 100 µM	> 100 µM	> 100 µM	> 100 µM	> 100 µM						
Nc1nc(Nc2ccccc2)c2[nH]cnc2n1	81.7 µM	> 100 µM	> 100 µM	> 100 µM	> 100 µM			> 100 µM	> 100 µM	> 100 µM						
OCCN(CCO)c1ncnc2nc[nH]c12	> 100 µM	> 100 µM	> 100 µM	> 100 µM	> 100 µM	> 100 µM	> 100 µM		> 100 µM	> 100 µM						
CC1=NN(c2nc(N)nc(/C(C#N)=C\c3csc([N+](=O)[O-])c3)n2)C(C)(C)C1	> 100 µM	> 100 µM	> 100 µM	> 100 µM	97.5 µM	> 100 µM	> 100 µM			> 100 µM						
O=c1c2cc(S(=O)(=O)O)ccc2nc(COc2ccc(Oc3ccc(Cl)cc3Cl)cc2)n1-c1ccc(Oc2ccc(Cl)cc2)cc1Cl	57 µM	> 100 µM	43.8 µM	30.2 µM	43 µM	32.8 µM	55.1 µM	50.1 µM	34.7 µM	27 µM						
CC1=C(O)C2=C(C(=O)C1=O)[C@@H](C)CC[C@@H]2[C@@H](C)C/C=C/C(C)(C)O	> 100 µM	> 100 µM	> 100 µM	> 100 µM	> 100 µM	> 100 µM	> 100 µM		> 100 µM	> 100 µM						
CC12C=CC(=O)C=C1CCC1C3CCC(O)(C(=O)CO)C3(C)CC(O)C12F (stereo not given)	> 100 µM	> 100 µM	> 100 µM	> 100 µM	> 100 µM	> 100 µM	> 100 µM	> 100 µM	> 100 µM	> 100 µM						
Nc1nc(O)c2ncn([C@H]3CC[C@@H](CO)O3)c2n1	> 100 µM	> 100 µM	> 100 µM	> 100 µM	> 100 µM	> 100 µM	> 100 µM	> 100 µM	> 100 µM	> 100 µM						
COc1ccc(Oc2cccc(C3C4C(=O)N(c5ccc(C)c(Cl)c5)C(=O)C4ON3C(C(N)=O)c3ccccc3)c2)cc1 (stereo not given)	> 50 µM	44.5 µM	25.9 µM	> 50 µM	20.2 µM	> 50 µM	> 50 µM	26.2 µM	34.9 µM	> 50 µM						
C/C(=N/N=C(\[O-])c1ccncc1)C(F)(F)F.C/C(=N\N=C(/[O-])c1ccncc1)C(F)(F)F.[Ni+2]	> 1 µM	> 1 µM	> 1 µM	> 1 µM	> 1 µM			> 1 µM			> 1 µM	> 1 µM	> 1 µM	> 1 µM	> 1 µM	> 1 µM
